One may read the IC50 as the concentration needed to halve the response being measured.

We go through 2 compounds from ChEMBL document CHEMBL5727392, “2,4-disubstituted pyrimidines as CDK inhibitors” (2019).

SMILES strings stand for the structures.

This assay concerns the target Cyclin-dependent kinase 4 (Homo sapiens, UniProt P11802). The experiment in a line: Caliper Mobility Shift Assay: CDK4: The test compound was dissolved in DMSO and diluted with a kinase buffer solution (20 mM HEPES-pH 7.5, 0.01% Triton X-100, 10 mM MgCl2, 2 mM DTT) and 5 μL of compound at 5-fold final concentration of reaction dissolved in 10% DMSO was added in a 384-well plate. The compound-free control well was 5 μL of 10% DMSO, and the no-activity control well was 5 μL of kinase buffer. 10 μL of a 2.5-fold diluted CDK4 enzyme solution (GST-CDK4(1-303 end)) was added and incubated at room temperature for 10 min, and then 10 μL of the 2.5-fold diluted substrate solution Peptide FAM-P8 was added. The reaction was stopped by adding 25 μL of stop solution after incubation at 28° C. for 3 h, and the conversion rate data was read on a Caliper EZ Reader II (Caliper Life Sciences) and the conversion rate was converted to inhibition rate data according to above method.

Chain of Cyclin-dependent kinase 4 (P11802 whole entry): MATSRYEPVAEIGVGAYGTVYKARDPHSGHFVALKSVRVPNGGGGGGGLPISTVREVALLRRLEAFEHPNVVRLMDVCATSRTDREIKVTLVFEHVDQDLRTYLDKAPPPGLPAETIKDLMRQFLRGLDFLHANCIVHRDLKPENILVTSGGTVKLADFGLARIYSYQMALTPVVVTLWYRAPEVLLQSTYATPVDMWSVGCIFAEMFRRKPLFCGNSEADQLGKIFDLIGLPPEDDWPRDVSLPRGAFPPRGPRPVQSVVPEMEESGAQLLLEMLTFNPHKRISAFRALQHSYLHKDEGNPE

Take `CC(C)c1c(C#N)n(C2CC2)c2ccc(-c3nc(Nc4ccc(CN5CCN(C6CC6)CC5)cn4)ncc3F)cc12`: the IC50 was below 20 nM. To `CC(C)c1c2ccc(-c3nc(Nc4ccc(N5CCNCC5)cn4)ncc3F)c(Cl)c2nn1C` belongs below 20 nM.
